Active and inactive are the calls of the source. The calls are words filed in the database; no cut-off is given here.
Legend:
[1] = target: T1, G-protein coupled receptor 55 (Homo sapiens, UniProt Q9Y2T6); assay: Antagonist activity at recombinant human GPR55 expressed in HEK293 cells assessed as LPI mediated receptor activation by measuring LPI Emax at 1 uM after 5 mins by xCELLigence assay (reference value: 99 to 104%); type: cell-based
[2] = target: T1, G-protein coupled receptor 55; assay: Partial agonist activity at recombinant human GPR55 expressed in HEK293 cells at 1 uM after 5 mins by xCELLigence assay relative to LPI; type: cell-based
Cannabinoid receptor 2 [3] = target: T2, Cannabinoid receptor 2 (Homo sapiens, UniProt P34972); assay: Displacement of [3H]CP55940 from human CB2 receptor expressed in HEK293 EBNA cells after 90 mins by liquid scintillation spectrophotometer; type: cell-based
Cannabinoid receptor 1 = Cannabinoid receptor 1 (Homo sapiens, UniProt P21554); assay: Displacement of [3H]CP55940 from human CB1 receptor expressed in HEK293 EBNA cells after 90 mins by liquid scintillation spectrophotometer; type: cell-based
HEK293 [4] = assay: Effect on non-transfected HEK293 cells at 1 nM to 10 uM after 5 mins by xCELLigence assay; type: functional, cell-based; details: Homo sapiens
[5] = target: T1, G-protein coupled receptor 55; assay: Agonist activity at recombinant human GPR55 expressed in HEK293 cells after 5 mins by xCELLigence assay; type: cell-based
[6] = target: T1, G-protein coupled receptor 55; assay: Agonist activity at recombinant human GPR55 expressed in HEK293 cells at 1 uM after 5 mins by xCELLigence assay relative to LPI; type: cell-based
HEK293 [7] = assay: Effect on non-transfected HEK293 cells at 10 uM after 5 mins by xCELLigence assay; type: functional, cell-based; details: Homo sapiens
Cannabinoid receptor 2 [8] = target: T2, Cannabinoid receptor 2; assay: Displacement of [3H]CP55940 from human CB2 receptor expressed in HEK293 EBNA cells at 40 uM after 90 mins by liquid scintillation spectrophotometer; type: cell-based
[9] = target: T1, G-protein coupled receptor 55; assay: Partial agonist activity at recombinant human GPR55 expressed in HEK293 cells after 5 mins by xCELLigence assay; type: cell-based
Cannabinoid receptor 2 [10] = target: T2, Cannabinoid receptor 2; assay: Agonist activity at human CB2 receptor expressed in CHO cells after 30 mins by [35S]-GTPgammaS binding assay relative to control

T2 sequence (P34972 whole entry): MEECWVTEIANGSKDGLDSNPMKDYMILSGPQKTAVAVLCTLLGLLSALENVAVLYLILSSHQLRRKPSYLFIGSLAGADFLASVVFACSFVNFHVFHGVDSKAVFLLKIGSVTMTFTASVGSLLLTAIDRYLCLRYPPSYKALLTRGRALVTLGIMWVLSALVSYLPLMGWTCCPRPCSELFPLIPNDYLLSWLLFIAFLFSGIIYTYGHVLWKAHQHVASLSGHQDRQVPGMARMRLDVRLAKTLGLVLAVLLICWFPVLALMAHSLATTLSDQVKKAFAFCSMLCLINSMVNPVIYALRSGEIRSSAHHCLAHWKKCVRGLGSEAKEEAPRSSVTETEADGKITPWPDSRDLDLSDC
T1 sequence (Q9Y2T6 whole entry): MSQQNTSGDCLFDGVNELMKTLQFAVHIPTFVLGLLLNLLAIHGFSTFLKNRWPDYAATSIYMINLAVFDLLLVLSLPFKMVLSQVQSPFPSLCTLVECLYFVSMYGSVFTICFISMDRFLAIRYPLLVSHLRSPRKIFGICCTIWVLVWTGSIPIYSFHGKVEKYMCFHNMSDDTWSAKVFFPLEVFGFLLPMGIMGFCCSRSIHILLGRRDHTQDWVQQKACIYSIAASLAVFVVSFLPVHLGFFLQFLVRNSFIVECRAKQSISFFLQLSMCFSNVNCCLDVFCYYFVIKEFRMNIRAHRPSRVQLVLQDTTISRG
Sequence of Cannabinoid receptor 1 (P21554 whole entry): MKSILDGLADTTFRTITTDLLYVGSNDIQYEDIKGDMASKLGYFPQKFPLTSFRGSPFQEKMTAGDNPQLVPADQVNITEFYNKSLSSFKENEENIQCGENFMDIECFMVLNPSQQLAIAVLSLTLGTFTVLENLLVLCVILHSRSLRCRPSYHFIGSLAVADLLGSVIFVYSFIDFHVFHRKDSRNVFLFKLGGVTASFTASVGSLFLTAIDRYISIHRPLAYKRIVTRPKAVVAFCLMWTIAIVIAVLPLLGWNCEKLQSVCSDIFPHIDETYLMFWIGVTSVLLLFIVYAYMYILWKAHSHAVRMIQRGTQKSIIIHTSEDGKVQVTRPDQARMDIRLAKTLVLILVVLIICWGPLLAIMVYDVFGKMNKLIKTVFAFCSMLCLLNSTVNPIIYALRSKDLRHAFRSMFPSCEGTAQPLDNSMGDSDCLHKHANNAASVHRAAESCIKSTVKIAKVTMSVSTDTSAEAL

SMILES	EC50 [5]	inhibition (Cannabinoid receptor 2 [8])	EC50 (Cannabinoid receptor 2 [10])	Emax [1]	Emax [2]	Ki (Cannabinoid receptor 2 [3])	Ki (Cannabinoid receptor 1)	Activity (HEK293 [4])	Activity [5]	Emax [6]	Activity (HEK293 [7])	EC50 [9]
COc1ccc2c(c1)OC(C)(C)c1cn(CCN3CCN(C(=O)COc4ccccc4)CC3)nc1-2	–	–	–	100%	52%	> 40 µM	> 40 µM	inactive	–	–	–	–
COc1ccc(N2CCN(CC(=O)NCn3ncc4c3-c3ccc(OC)cc3OC4(C)C)CC2)cc1	–	–	–	80%	–	> 40 µM	> 40 µM	inactive	inactive	< 25%	–	–
COc1ccc2c(c1)OC(C)(C)c1cn(CCN3CCN(C(=O)C4CCCO4)CC3)nc1-2 (stereo not drawn)	–	70%	–	102%	51%	1.07 µM	> 40 µM	inactive	–	–	–	0.0004 µM
COc1ccc2c(c1)OC(C)(C)c1cnn(CNC(=O)CN3CCN(c4cccc(C)c4C)CC3)c1-2	–	–	–	–	–	> 40 µM	> 40 µM	–	inactive	–	–	–
COc1ccc2c(c1)OC(C)(C)c1cnn(CCN3CCN(C(=O)c4cccs4)CC3)c1-2	–	–	–	99%	–	–	> 40 µM	inactive	–	< 25%	–	–
COc1ccc2c(c1)OC(C)(C)c1cnn(CNC(=O)CN3CCN(c4ccccc4)CC3)c1-2	–	70%	–	97%	–	4.92 µM	> 40 µM	inactive	inactive	< 25%	–	–
COc1ccc2c(c1)OC(C)(C)c1cn(CCN3CCN(C(=O)c4ccccc4)CC3)nc1-2	–	70%	–	105%	51%	3.6 µM	> 40 µM	inactive	–	–	–	0.0006 µM
COc1ccc2c(c1)OC(C)(C)c1cn(CNC(=O)CN3CCN(c4cccc(C)c4C)CC3)nc1-2	–	–	–	102%	–	> 40 µM	> 40 µM	inactive	inactive	< 25%	–	–
COc1ccc2c(c1)OC(C)(C)c1cnn(CCN3CCN(C(=O)c4ccco4)CC3)c1-2	–	–	–	97%	–	–	> 40 µM	inactive	–	< 25%	–	–
COc1ccc2c(c1)OC(C)(C)c1cn(CNC(=O)CN3CCN(c4ccccc4OC)CC3)nc1-2	–	–	–	90%	51%	> 40 µM	> 40 µM	inactive	–	–	–	0.00636 µM
COc1ccc2c(c1)OC(C)(C)c1cnn(CCN3CCN(C(=O)c4ccccc4)CC3)c1-2	–	–	–	–	–	–	> 40 µM	–	–	–	–	–
COc1ccc2c(c1)OC(C)(C)c1cnn(CNC(=O)CN3CCN(c4ccccc4OC)CC3)c1-2	–	–	–	–	–	> 40 µM	> 40 µM	–	inactive	–	–	–

The next lines start with results.

EC50 [5]	inhibition (Cannabinoid receptor 2 [8])	EC50 (Cannabinoid receptor 2 [10])	SMILES	Emax [1]	Emax [2]	Ki (Cannabinoid receptor 2 [3])	Ki (Cannabinoid receptor 1)	Activity (HEK293 [4])	Activity [5]	Emax [6]	Activity (HEK293 [7])	EC50 [9]
0.00282 µM	–	–	CCCCCCCCCCCCCCCCCC(=O)OC[C@@H](O)COP(=O)(O)O[C@@H]1[C@H](O)[C@H](O)[C@@H](O)[C@H](O)[C@H]1O	–	–	–	–	–	–	–	Active	–
–	70%	–	COc1ccc2c(c1)OC(C)(C)c1cn(CCN3CCN(C(=O)c4ccco4)CC3)nc1-2	106%	43%	0.698 µM	> 40 µM	inactive	–	–	–	–
–	70%	–	COc1ccc2c(c1)OC(C)(C)c1cn(CNC(=O)CN3CCN(c4ccccc4)CC3)nc1-2	94%	–	1.58 µM	> 40 µM	inactive	inactive	< 25%	–	–
–	70%	–	COc1ccc2c(c1)OC(C)(C)c1cn(CCN3CCN(C(=O)C(C)(C)C)CC3)nc1-2	100%	49%	6.39 µM	> 40 µM	inactive	–	–	–	–
–	70%	–	COc1ccc2c(c1)OC(C)(C)c1cn(CCN3CCN(C(=O)C4CCCCC4)CC3)nc1-2	99%	47%	0.523 µM	> 40 µM	inactive	–	–	–	–
–	70%	0.392 µM	COc1ccc2c(c1)OC(C)(C)c1cn(CCN3CCN(C(=O)c4cccs4)CC3)nc1-2	96%	45%	0.0154 µM	> 40 µM	inactive	–	–	–	–
